# Positions count from the first letter of the chain named.
# Columns and labels:
# [1] = target: T1, BaF3 cells transfected with T315I p210 BCR-Abl (Homo sapiens, UniProt P00519, T315I, cells depend on it); assay: Ba/F3 p210 T315I whole cell proliferation assay; assay type: cell-based; conditions: 72 hours, Cell Titer Blue; read-out: Whole Cell Antiproliferation IC50, Ba/F3 p210 T315I whole cell proliferation assay
# T1 construct: fused on or other part: P11274 (Breakpoint cluster region protein)
# Method: (§1) BaF3 cells (parental or transfected with the following: wild type p210 BCR-Abl and T315I p210 BCR-Abl was obtained from Professor Richard Van Etten (New England Medical Center, Boston, Mass.). Briefly, cells were grown in RPMI 1640 supplemented with 10% characterized fetal bovine serum (HyClone, Logan, Utah) at 37 degrees Celsius, 5% CO2, 95% humidity. Cells were allowed to expand until reaching 80% saturation at which point they were subcultured or harvested for assay use.
# (§2) A serial dilution of test compound was dispensed into a 96 well black clear bottom plate (Corning, Corning, N.Y.). For each cell line, three thousand cells were added per well in complete growth medium. Plates were incubated for 72 hours at 37 degrees Celsius, 5% CO2, 95% humidity. At the end of the incubation period Cell Titer Blue (Promega, Madison, Wis.) was added to each well and an additional 4.5 hour incubation at 37 degrees Celsius, 5% CO2, 95% humidity was performed. Plates were then read on a BMG Fluostar Optima (BMG, Durham, N.C.) using an excitation of 544 nm and an emission of 612 nm. Data was analyzed using Prism software (Graphpad, San Diego, Calif.) to calculate IC50's.
# [2] = target: T2, Abl kinase (SEQ ID NO: 1) (Homo sapiens, UniProt P00519); assay: Abl kinase (SEQ ID NO:1) assay, pyruvate kinase/lactate dehydrogenase coupled; conditions: 2 h preincubation, ATP 500 μM; read-out: Biochemical IC50, Abl Enzyme Assay
# T2 construct: purchased deCode Genetics
# T2 sequence (P00519 with tags, fused parts or gaps): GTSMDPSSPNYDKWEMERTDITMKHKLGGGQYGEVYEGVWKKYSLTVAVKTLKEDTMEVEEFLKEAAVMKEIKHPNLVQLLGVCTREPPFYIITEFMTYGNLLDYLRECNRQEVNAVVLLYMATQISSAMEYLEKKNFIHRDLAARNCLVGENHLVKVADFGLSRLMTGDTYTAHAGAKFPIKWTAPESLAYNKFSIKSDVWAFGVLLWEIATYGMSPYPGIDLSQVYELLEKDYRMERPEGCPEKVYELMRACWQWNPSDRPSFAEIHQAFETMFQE
# Method: Abl Kinase (SEQ ID NO:1) Assay
# Activity of Abl kinase (SEQ ID NO: 1) was determined by following the production of ADP from the kinase reaction through coupling with the pyruvate kinase/lactate dehydrogenase system (e.g., Schindler, et al. Science (2000) 289, 1938-1942). In this assay, the oxidation of NADH (thus the decrease at A340 nm) was continuously monitored spectrophometrically. The reaction mixture (100 μl) contained Abl kinase (1 nM. Abl from deCode Genetics), peptide substrate (EAIYAAPFAKKK, 0.2 mM), MgCl2 (10 mM), pyruvate kinase (4 units), lactate dehydrogenase (0.7 units), phosphoenol pyruvate (1 mM), and NADH (0.28 mM) in 90 mM Tris buffer containing 0.2% octyl-glucoside and 3.5% DMSO, pH 7.5. Test compounds were incubated with Abl (SEQ ID NO:1) and other reaction reagents at 30° C. for 2 h before ATP (500 μM) was added to start the reaction. The absorption at 340 nm was monitored continuously for 2 hours at 30° C. on Polarstar Optima plate reader (BMG). The reaction rate was calculated using the 1.0 to 2.0 h time frame. Percent inhibition was obtained by comparison of reaction rate with that of a control (i.e. with no test compound). IC50 values were calculated from a series of percent inhibition values determined at a range of inhibitor concentrations using software routines as implemented in the GraphPad Prism software package.
# [3] = target: T3, C-Met kinase (SEQ ID NO:10) (Homo sapiens, UniProt P08581); assay: C-Met kinase (SEQ ID NO:10) assay, pyruvate kinase/lactate dehydrogenase coupled; conditions: 0.5 h preincubation, ATP 100 μM; read-out: Biochemical IC50, c-Met Enzyme Assay
# T3 construct: 956-1390, from Invitrogen, catalogue #PV3143; His6 (N-terminal leader MSYYHHHHHH... with TEV and thrombin sites) (N); purchased Invitrogen PV3143
# T3 sequence (P08581 with tags, fused parts or gaps): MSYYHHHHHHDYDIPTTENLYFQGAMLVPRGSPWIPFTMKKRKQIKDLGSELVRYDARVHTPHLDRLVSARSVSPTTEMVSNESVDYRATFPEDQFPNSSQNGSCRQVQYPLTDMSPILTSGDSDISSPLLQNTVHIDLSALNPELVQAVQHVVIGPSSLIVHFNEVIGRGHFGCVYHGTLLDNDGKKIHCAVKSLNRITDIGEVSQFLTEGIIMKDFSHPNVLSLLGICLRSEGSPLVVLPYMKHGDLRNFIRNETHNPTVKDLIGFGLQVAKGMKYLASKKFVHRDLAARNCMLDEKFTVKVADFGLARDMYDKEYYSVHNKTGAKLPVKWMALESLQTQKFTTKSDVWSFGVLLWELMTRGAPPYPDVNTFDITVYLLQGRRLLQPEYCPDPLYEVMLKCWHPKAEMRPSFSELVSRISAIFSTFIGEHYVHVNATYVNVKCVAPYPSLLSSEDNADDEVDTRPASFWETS
# Method: C-Met Kinase (SEQ ID NO:10) Assay
# Activity of C-Met kinase (SEQ ID NO:10) was determined by following the production of ADP from the kinase reaction through coupling with the pyruvate kinase/lactate dehydrogenase system (e.g., Schindler, et al. Science (2000) 289, 1938-1942). In this assay, the oxidation of NADH (thus the decrease at A340 nm) was continuously monitored spectrophometrically. The reaction mixture (100 μl) contained C-Met (c-Met residues; 956-1390, from Invitrogen, catalogue #PV3143, […]), polyE4Y (1 mg/ml), MgCl2 (10 mM), pyruvate kinase (4 units), lactate dehydrogenase (0.7 units), phosphoenol pyruvate (1 mM), and NADH (0.28 mM) in 90 mM Tris buffer containing 0.25 mM DTT, 0.2% octyl-glucoside and 1% DMSO, pH 7.5. Test compounds were incubated with C-Met (SEQ ID NO:10) and other reaction reagents at 22° C. for 0.5 h before ATP (100 μM) was added to start the reaction. The absorption at 340 nm was monitored continuously for 2 hours at 30° C. on Polarstar Optima plate reader (BMG). The reaction rate was calculated using the 1.0 to 2.0 h time frame. Percent inhibition was obtained by comparison of reaction rate with that of a control (i.e. with no test compound). IC50 values were calculated from a series of percent inhibition values determined at a range of inhibitor concentrations using software routines as implemented in the GraphPad Prism software package.
# [4] = target: T4, BaF3 cells transfected with wild type p210 BCR-Abl (Homo sapiens, UniProt P00519); assay: Ba/F3 p210 whole cell proliferation assay; assay type: cell-based; conditions: 72 hours, Cell Titer Blue; read-out: Whole Cell Antiproliferation IC50, Ba/F3 p210 whole cell proliferation assay
# T4 construct: fused on or other part: P11274 (Breakpoint cluster region protein)
# Method: as §1, §2
# [5] = target: T5, T315I Abl kinase (SEQ ID NO:2) (Homo sapiens, UniProt P00519, T315I); assay: T315I Abl kinase (SEQ ID NO:2) assay, pyruvate kinase/lactate dehydrogenase coupled; conditions: 1 h preincubation, ATP 500 μM; read-out: Biochemical IC50, Abl T315I Enzyme Assay
# T5 construct: purchased deCode Genetics
# T5 sequence (P00519 with tags, fused parts or gaps T315I): T2 sequence (P00519 with tags, fused parts or gaps) with T94I
# Method: Abl Kinase (SEQ ID NO:2) Assay
# Activity of T315I Abl kinase (SEQ ID NO:2) was determined by following the production of ADP from the kinase reaction through coupling with the pyruvate kinase/lactate dehydrogenase system (e.g., Schindler, et al. Science (2000) 289, 1938-1942). In this assay, the oxidation of NADH (thus the decrease at A340 nm) was continuously monitored spectrophometrically. The reaction mixture (100 μl) contained Abl kinase (4.4 nM, […] Abl from deCode Genetics), peptide substrate (EAIYAAPFAKKK, 0.2 mM), MgCl2 (10 mM), pyruvate kinase (4 units), lactate dehydrogenase (0.7 units), phosphoenol pyruvate (1 mM), and NADH (0.28 mM) in 90 mM Tris buffer containing 0.2% octyl-glucoside and 1% DMSO, pH 7.5. Test compounds were incubated with T315I Abl (SEQ ID NO:2) and other reaction reagents at 30° C. for 1 h before ATP (500 μM) was added to start the reaction. The absorption at 340 nm was monitored continuously for 2 hours at 30° C. on Polarstar Optima plate reader (BMG). The reaction rate was calculated using the 1.0 to 2.0 h time frame. Percent inhibition was obtained by comparison of reaction rate with that of a control (i.e. with no test compound). IC50 values were calculated from a series of percent inhibition values determined at a range of inhibitor concentrations using software routines as implemented in the GraphPad Prism software package.
Compound,GI50 [1] [nM],IC50 [2] [nM],IC50 [3] [nM],GI50 [4] [nM],IC50 [5] [nM]
"CC(C)n1cc(NC(=O)Nc2ccc(Oc3ccnc(-c4cnn(C)c4)c3)cc2F)c(C(F)(F)F)n1 [Example 18, 1-(2-fluoro-4-(2-(1-methyl-1H-pyrazol-4-yl)pyridin-4-yloxy)phenyl)-3-(1-isopropyl-3-(trifluoromethyl)-1H-pyrazol-4-yl)urea]",< 100,< 100,< 10000,< 100,–
"Cn1cc(-c2cc(Oc3ccc(NC(=O)Nc4cnc(C(C)(C)C)o4)c(F)c3)ccn2)cn1 [Example 26, 1-(2-tert-butyloxazol-5-yl)-3-(2-fluoro-4-(2-(1-methyl-1H-pyrazol-4-yl)pyridin-4-yloxy)phenyl)urea]",–,< 100,–,–,–
"Cn1cc(-c2cc(Oc3ccc(NC(=O)Nc4nc5ccc(F)cc5s4)c(F)c3)ccn2)cn1 [Example 29, 1-(2-fluoro-4-(2-(1-methyl-1H-pyrazol-4-yl)pyridin-4-yloxy)phenyl)-3-(6-fluorobenzo[d]thiazol-2-yl)urea]",< 100000,< 100,–,< 1000,–
"Cc1c(C(C)(C)C)noc1NC(=O)Nc1ccc(Oc2ccnc(-c3cnn(C)c3)c2)cc1F [Example 31, 1-(3-tert-butyl-4-methylisoxazol-5-yl)-3-(2-fluoro-4-(2-(1-methyl-1H-pyrazol-4-yl)pyridin-4-yloxy)phenyl)urea]",< 100,< 100,–,< 100,< 100
"CC(C)n1cnc(NC(=O)Nc2ccc(Oc3ccnc(-c4cnn(C)c4)c3)cc2F)c1 [Example 34, 1-(2-fluoro-4-(2-(1-methyl-1H-pyrazol-4-yl)pyridin-4-yloxy)phenyl)-3-(1-isopropyl-1H-imidazol-4-yl)urea]",< 1000,< 100,–,< 100,< 100
"Cn1cc(-c2cc(Oc3ccc(NC(=O)NC4CC(=O)N(C(C)(C)C)C4)c(F)c3)ccn2)cn1 (stereo not shown) [Example 35, 1-(1-tert-butyl-5-oxopyrrolidin-3-yl)-3-(2-fluoro-4-(2-(1-methyl-1H-pyrazol-4-yl)pyridin-4-yloxy)phenyl)urea]",< 100000,< 1000,–,< 1000,< 10000
"Cc1cc(NC(=O)Nc2ccc(Oc3ccnc(-c4cnn(C)c4)c3)cc2F)nn1C(C)(C)C [Example 38, 1-(1-tert-butyl-5-methyl-1H-pyrazol-3-yl)-3-(2-fluoro-4-(2-(1-methyl-1H-pyrazol-4-yl)pyridin-4-yloxy)phenyl)urea]",< 100000,< 100,–,< 1000,< 1000

# More lines, now with the values ahead:
GI50 [1] [nM],IC50 [2] [nM],IC50 [3] [nM],GI50 [4] [nM],IC50 [5] [nM],Compound
< 1000,< 100,–,< 100,–,"Cc1c(NC(=O)Nc2ccc(Oc3ccnc(-c4cnn(C)c4)c3)cc2F)cnn1C1CCCC1 [Example 23, 1-(1-cyclopentyl-5-methyl-1H-pyrazol-4-yl)-3-(2-fluoro-4-(2-(1-methyl-1H-pyrazol-4-yl)pyridin-4-yloxy)phenyl)urea]"
< 100,< 100,–,< 100,< 100,"CCc1cncc(NC(=O)Nc2ccc(Oc3ccnc(-c4cnn(C)c4)c3)cc2F)c1 [Example 32, 1-(5-ethylpyridin-3-yl)-3-(2-fluoro-4-(2-(1-methyl-1H-pyrazol-4-yl)pyridin-4-yloxy)phenyl)urea]"
< 1000,< 1000,–,< 1000,< 1000,"Cn1cc(-c2cc(Oc3ccc(NC(=O)Nc4cc(C5CC5)nn4C)c(F)c3)ccn2)cn1 [Example 33, 1-(3-cyclopropyl-1-methyl-1H-pyrazol-5-yl)-3-(2-fluoro-4-(2-(1-methyl-1H-pyrazol-4-yl)pyridin-4-yloxy)phenyl)urea]"
< 100000,< 1000,–,< 10000,< 10000,"Cn1cc(-c2cc(Oc3ccc(NC(=O)NC4CCN(C(C)(C)C)C4)c(F)c3)ccn2)cn1 (stereo not shown) [Example 36, 1-(1-tert-butylpyrrolidin-3-yl)-3-(2-fluoro-4-(2-(1-methyl-1H-pyrazol-4-yl)pyridin-4-yloxy)phenyl)urea]"
< 100,< 100,–,< 100,< 100,"Cc1ncc(C(F)(F)F)cc1NC(=O)Nc1ccc(Oc2ccnc(-c3cnn(C)c3)c2)cc1F [Example 37, 1-(2-fluoro-4-(2-(1-methyl-1H-pyrazol-4-yl)pyridin-4-yloxy)phenyl)-3-(2-methyl-5-(trifluoromethyl)pyridin-3-yl)urea]"

# — patent publication US8143293B2, “Kinase inhibitors useful for the treatment of myleoprolific diseases and other proliferative diseases” (Deciphera Pharmaceuticals, LLC, priority 2007, dated 2012)
